Where “and” joins values, the source holds several entries; their conditions need not be identical. Equal values may be shown once. Inconclusive results and toxic doses are left out.
System: BDF1 mice, P388 leukemia (terephthalanilide-resistant), survival T/C
Experiment: NCI In Vivo Anticancer Drug Screen. Data for tumor model P388 Leukemia resistant to A Terephthalanilide; NSC 38280 (intraperitoneal) in B6D2F1 (BDF1) mice
Details: endpoint: median survival time, higher = longer survival
Method: The antitumor activity of compounds was measured in mice bearing transplantable tumors. Survival or tumor size were measured and the results are expressed as the measurement made in the treated group (T) divided by the measurement made in the vehicle treated control group (C). The tumor model used in this assay is P388 Leukemia resistant to A Terephthalanilide; NSC 38280 (intraperitoneal) in B6D2F1 (BDF1) mice

[1] = dose: 8.0 mg/kg/injection, schedule: Q01DX010 (ip), vehicle: saline
[2] = dose: 12.0 mg/kg/injection, schedule: Q01DX010 (ip), vehicle: saline
[3] = dose: 18.0 mg/kg/injection, schedule: Q01DX010 (ip), vehicle: saline
[4] = dose: 250.0 mg/kg/injection, schedule: Q01DX010 (ip), vehicle: saline
[5] = dose: 100.0 mg/kg/injection, schedule: Q01DX010 (ip), vehicle: saline
[6] = dose: 200.0 mg/kg/injection, schedule: Q01DX010 (ip), vehicle: saline
[7] = dose: 3.13 mg/kg/injection, schedule: Q01DX010 (ip), vehicle: saline
[8] = dose: 6.25 mg/kg/injection, schedule: Q01DX010 (ip), vehicle: saline
[9] = dose: 12.5 mg/kg/injection, schedule: Q01DX010 (ip), vehicle: saline
[10] = dose: 25.0 mg/kg/injection, schedule: Q01DX010 (ip), vehicle: saline
[11] = dose: 6.0 mg/kg/injection, schedule: Q01DX010 (ip), vehicle: saline
[12] = dose: 15.6 mg/kg/injection, schedule: Q01DX010 (ip), vehicle: saline
[13] = dose: 62.5 mg/kg/injection, schedule: Q01DX010 (ip), vehicle: saline
[14] = dose: 125.0 mg/kg/injection, schedule: Q01DX010 (ip), vehicle: saline

With CCCNC(=NC)c1ccc(NC(=O)c2ccc(C(=O)Nc3ccc(C(=NC)NCCC)cc3)cc2)cc1 the T/C (dose: 5.2 mg/kg/injection, schedule: Q01DX010 (ip), vehicle: saline) was 100 % of control, the T/C [1] was 100 % of control and the T/C [2] was 111 % of control. The T/C [3] was 111 % of control.

NC(Cc1ccc(N(CCCl)CCCl)cc1)C(=O)O (stereo not given) was tested, and the T/C (dose: 2.0 mg/kg/injection, schedule: Q01DX010 (ip), vehicle: other) was 163 % of control and the T/C (dose: 4.0 mg/kg/injection, schedule: Q01DX010 (ip), vehicle: other) was 100 % of control.

C[C@]12C=CC(=O)C=C1CC[C@@H]1[C@@H]2C(=O)C[C@@]2(C)[C@H]1CC[C@]2(O)C(=O)CO was tested, and the T/C (dose: 0.12 mg/kg/injection, schedule: Q01DX Z (sc), vehicle: steriod suspending solution) was 100 % of control, the T/C (dose: 12.5 mg/kg/injection, schedule: Q01DX Z (sc), vehicle: steriod suspending solution) was 104 % of control and the T/C (dose: 25.0 mg/kg/injection, schedule: Q01DX010 (sc), vehicle: steriod suspending solution) was 105 % of control. The T/C (dose: 25.0 mg/kg/injection, schedule: Q01DX Z (sc), vehicle: steriod suspending solution) was 100 % of control and 109 % of control, the T/C (dose: 50.0 mg/kg/injection, schedule: Q01DX Z (sc), vehicle: steriod suspending solution) was 100 % of control and the T/C (dose: 100.0 mg/kg/injection, schedule: Q01DX010 (sc), vehicle: steriod suspending solution) was 88 % of control. For the same molecule, the T/C (dose: 200.0 mg/kg/injection, schedule: Q01DX010 (sc), vehicle: steriod suspending solution) was 88 % of control.

In the case of O=C(Nc1ccc(C2=NCCN2)cc1)c1cc(C(=O)Nc2ccc(C3=NCCN3)cc2)cc([N+](=O)[O-])c1, the T/C (dose: 167.0 mg/kg/injection, schedule: Q01DX010 (ip), vehicle: saline) is reported as 94 % of control, the T/C [4] is reported as 100 % of control and the T/C (dose: 375.0 mg/kg/injection, schedule: Q01DX010 (ip), vehicle: saline) is reported as 94 % of control. For the same molecule, the T/C (dose: 512.0 mg/kg/injection, schedule: Q01DX010 (ip), vehicle: saline) was 94 % of control.

In the case of Nc1nc2n[nH]nc2c(=O)[nH]1, the T/C (dose: 25.0 mg/kg/injection, schedule: Q01DX010 (ip), vehicle: alkali diluted with saline) is reported as 162 % of control, the T/C (dose: 50.0 mg/kg/injection, schedule: Q01DX010 (ip), vehicle: alkali diluted with saline) is reported as 162 % of control and the T/C (dose: 100.0 mg/kg/injection, schedule: Q01DX010 (ip), vehicle: alkali diluted with saline) is reported as 175 % of control. For the same molecule, the T/C (dose: 200.0 mg/kg/injection, schedule: Q01DX010 (ip), vehicle: alkali diluted with saline) was 175 % of control.

O=c1cnn(C2OC(CO)C(O)C2O)c(=O)[nH]1 (stereo not given) was tested, and the T/C (dose: 800.0 mg/kg/injection, schedule: Q01DX010 (ip), vehicle: saline) was 120 % of control and the T/C (dose: 1600.0 mg/kg/injection, schedule: Q01DX010 (ip), vehicle: saline) was 110 % of control.

CS(=O)(=O)OCC(O)C(O)C(O)C(O)COS(C)(=O)=O (stereo not given) was tested, and the T/C (dose: 50.0 mg/kg/injection, schedule: Q01DX010 (ip), vehicle: saline) was 100 % of control, the T/C [5] was 100 % of control and the T/C [6] was 100 % of control. The T/C (dose: 400.0 mg/kg/injection, schedule: Q01DX010 (ip), vehicle: saline) was 100 % of control.

For C[n+]1c2ccccc2nc2c(N)cc(N)cc21, the T/C [2] was 100 % of control, the T/C [3] was 100 % of control and the T/C (dose: 27.0 mg/kg/injection, schedule: Q01DX010 (ip), vehicle: saline) was 91 % of control.

O=C(Nc1cccc(C(=O)Nc2ccc(C3=NCCN3)cc2)c1)c1ccc(C2=NCCN2)cc1 was tested, and the T/C (dose: 54.0 mg/kg/injection, schedule: Q01DX010 (ip), vehicle: saline) was 117 % of control.

In the case of Nc1nc(SCc2ccccc2)c2[nH]cnc2n1, the T/C [1] is reported as 105 % of control, the T/C (dose: 16.0 mg/kg/injection, schedule: Q01DX010 (ip), vehicle: saline) is reported as 100 % of control and 105 % of control and the T/C (dose: 32.0 mg/kg/injection, schedule: Q01DX010 (ip), vehicle: saline) is reported as 121 % of control. For the same molecule, the T/C (dose: 64.0 mg/kg/injection, schedule: Q01DX010 (ip), vehicle: saline) was 115 % of control and 122 % of control.

With C[C@H]1C(=O)O[C@@H]2CCN3CC=C(COC(=O)[C@](C)(O)[C@@]1(C)O)[C@H]23 the T/C [7] was 90 % of control and 100 % of control, the T/C [8] was 95 % of control and the T/C [9] was 95 % of control and 100 % of control. The T/C [10] was 105 % of control and 109 % of control.

For OCC1OC(n2cnc3c(=S)nc[nH]c32)C(O)C1O (stereo not given), the T/C (dose: 20.0 mg/kg/injection, schedule: Q01DX010 (ip), vehicle: saline) was 90 % of control and 111 % of control, the T/C (dose: 40.0 mg/kg/injection, schedule: Q01DX010 (ip), vehicle: saline) was 100 % of control and 105 % of control and the T/C (dose: 80.0 mg/kg/injection, schedule: Q01DX010 (ip), vehicle: saline) was 116 % of control. The T/C (dose: 160.0 mg/kg/injection, schedule: Q01DX010 (ip), vehicle: saline) was 110 % of control.

With N#[N+]c1cnc([O-])[nH]c1=O the T/C (dose: 1.25 mg/kg/injection, schedule: Q01DX010 (ip), vehicle: saline) was 113 % of control, the T/C (dose: 2.5 mg/kg/injection, schedule: Q01DX010 (ip), vehicle: saline) was 113 % of control and the T/C (dose: 5.0 mg/kg/injection, schedule: Q01DX010 (ip), vehicle: saline) was 95 % of control and 122 % of control.

With O[C@H](CN1CC1)[C@@H](O)CN1CC1 the T/C (dose: 62.5 micrograms/kg/injection, schedule: Q01DX010 (ip), vehicle: saline) was 120 % of control, the T/C (dose: 125.0 micrograms/kg/injection, schedule: Q01DX010 (ip), vehicle: saline) was 200 % of control and the T/C (dose: 250.0 micrograms/kg/injection, schedule: Q01DX010 (ip), vehicle: saline) was 175 % of control. For the same molecule, the T/C (dose: 500.0 micrograms/kg/injection, schedule: Q01DX010 (ip), vehicle: saline) was 120 % of control.

COc1cc(-c2ccc(Nc3ccccc3C(=O)O)c(OC)c2)ccc1Nc1ccccc1C(=O)O was tested, and the T/C (dose: 67.0 mg/kg/injection, schedule: Q01DX010 (ip), vehicle: saline) was 159 % of control and the T/C [5] was 159 % of control.

In the case of O=C(Nc1ccc(NC(=O)Nc2ccc(C3=NCCN3)cc2)cc1)Nc1ccc(C2=NCCN2)cc1, the T/C (dose: 110.0 mg/kg/injection, schedule: Q01DX010 (ip), vehicle: saline) is reported as 111 % of control.

For O=C(Nc1ccc(C2=NCCN2)cc1)c1cc(Cl)cc(C(=O)Nc2ccc(C3=NCCN3)cc2)c1, the T/C (dose: 140.0 mg/kg/injection, schedule: Q01DX010 (ip), vehicle: saline) was 100 % of control, the T/C (dose: 210.0 mg/kg/injection, schedule: Q01DX010 (ip), vehicle: saline) was 100 % of control and the T/C (dose: 315.0 mg/kg/injection, schedule: Q01DX010 (ip), vehicle: saline) was 100 % of control. For the same molecule, the T/C (dose: 473.0 mg/kg/injection, schedule: Q01DX010 (ip), vehicle: saline) was 94 % of control.

In the case of O=C(Nc1ccc(C2=NCCN2)cc1)c1ccc(C(=O)Nc2ccc(C3=NCCN3)cc2)c([N+](=O)[O-])c1, the T/C [11] is reported as 110 % of control and 122 % of control, the T/C [1] is reported as 110 % of control and 122 % of control and the T/C [2] is reported as 122 % of control. For the same molecule, the T/C [3] was 88 % of control and 105 % of control.

With CCn1cnc2c(=S)nc[nH]c21 the T/C [12] was 100 % of control and 105 % of control, the T/C (dose: 31.3 mg/kg/injection, schedule: Q01DX010 (ip), vehicle: saline) was 105 % of control and 110 % of control and the T/C [13] was 94 % of control and 100 % of control. For the same molecule, the T/C [14] was 110 % of control.

With OCC1OC(n2cnc3c(Cl)ncnc32)C(O)C1O (stereo not given) the T/C [13] was 94 % of control, the T/C [14] was 100 % of control and the T/C [4] was 90 % of control and 94 % of control. For the same molecule, the T/C (dose: 500.0 mg/kg/injection, schedule: Q01DX010 (ip), vehicle: saline) was 90 % of control and 111 % of control.

In the case of CCCNc1ncnc2[nH]ncc12, the T/C [7] is reported as 95 % of control and 105 % of control, the T/C [8] is reported as 100 % of control and the T/C [9] is reported as 90 % of control and 94 % of control. The T/C [10] was 110 % of control and the T/C [4] was 111 % of control.

With S=P(N1CC1)(N1CC1)N1CC1 the T/C (dose: 0.75 mg/kg/injection, schedule: Q01DX010 (ip), vehicle: saline) was 112 % of control and the T/C [11] was 162 % of control.

For C1CN1c1nc(N2CC2)nc(N2CC2)n1, the T/C (dose: 0.13 mg/kg/injection, schedule: Q01DX010 (ip), vehicle: saline) was 94 % of control and 100 % of control, the T/C (dose: 0.25 mg/kg/injection, schedule: Q01DX010 (ip), vehicle: saline) was 105 % of control and 116 % of control and the T/C (dose: 0.5 mg/kg/injection, schedule: Q01DX010 (ip), vehicle: saline) was 116 % of control. For the same molecule, the T/C (dose: 1.0 mg/kg/injection, schedule: Q01DX010 (ip), vehicle: saline) was 111 % of control.

CN(C)CC(=O)c1ccc(O)c(O)c1 was tested, and the T/C [6] was 113 % of control, the T/C (dose: 300.0 mg/kg/injection, schedule: Q01DX010 (ip), vehicle: saline) was 113 % of control and the T/C (dose: 450.0 mg/kg/injection, schedule: Q01DX010 (ip), vehicle: saline) was 113 % of control.

In the case of CC(=O)Nc1ccc2nc3ccc(NC(C)=O)cc3[n+](-c3ccccc3)c2c1, the T/C (dose: 7.8 mg/kg/injection, schedule: Q01DX010 (ip), vehicle: saline) is reported as 90 % of control and the T/C [12] is reported as 90 % of control.
